One compound from patent US20030092691A1 (priority 2001, published 2003) can be followed below.

The data set is described as follows: Study of solubility of micronized progesterone in various oils (concentration at saturation). The note with it: in refined olive oil; one hour stirring at room temperature, filtered 0.45 μm. In kind it is physicochemical. Here is the method:
The saturated solutions were then prepared as follows: The saturated solutions in each oil were maintained for one hour with stirring at room temperature, and were then filtered on a nylon filter syringe with a diameter of 25 mm, at 0.45 μm.

For the compound `CC(=O)[C@H]1CC[C@H]2[C@@H]3CCC4=CC(=O)CC[C@]4(C)[C@H]3CC[C@]12C` [Micronized progesterone, progesterone], the “CONCENTRATION AT SATURATION” value was found to be 19560 µg/mL.
